# Like-named read-outs stand apart in the source and are kept apart here.
# Target: human NaV subtype, like NaV 1.7 (Homo sapiens, UniProt Q15858)
# Experiment: E-VIPR optical membrane potential assay with electrical stimulation
# Assay type: cell-based
# Excerpt: Sodium channels are voltage-dependent proteins that can be activated by inducing membrane voltage changes by applying electric fields. […] The instrument comprises a microtiter plate handler, an optical system for exciting the coumarin dye while simultaneously recording the coumarin and oxonol emissions, a waveform generator, a current- or voltage-controlled amplifier, and a device for inserting electrodes in well. Under integrated computer control, this instrument passes user-programmed electrical stimulus protocols to cells within the wells of the microtiter plate.
# 24 hours before the assay on E-VIPR, HEK cells expressing human NaV subtype, like NaV 1.7, are seeded in 384-well poly-lysine coated plates at 15,000-20,000 cells per well. Other subtypes are performed in an analogous mode in a cell line expressing the NaV of interest. […] Cells are grown in vented cap flasks, in 90% humidity and 10% CO2, to 100% confluence. They are usually split by trypsinization 1:10 or 1:20, depending on scheduling needs, and grown for 2-3 days before the next split.
# To make the solution Add volume of 10% Pluronic F127 stock equal to volumes of CC2-DMPE+DiSBAC6(3). The order of preparation is first mix Pluronic and CC2-DMPE, then add DiSBAC6(3) while vortexing, then add Bath1+β-Cyclodextrin.
# 1) Pre-spot compounds (in neat DMSO) into compound plates. […] Final compound plate volume will be 80 μL (80-fold intermediate dilution from 1 μL DMSO spot; 160-fold final dilution after transfer to cell plate).
# 2) Prepare Hexyl Dye Solution.
# 3) Prepare cell plates. On the day of the assay, medium is aspirated and cells are washed three times with 100 μL of Bath1 Solution, maintaining 25 μL residual volume in each well.
# 4) Dispense 25 μL per well of Hexyl Dye Solution into cell plates. Incubate for 20-35 minutes at room temp or ambient conditions.
# 5) Dispense 80 μL per well of Bath1 into compound plates. Acid Yellow-17 (1 mM) is added and Potassium Chloride can be altered from 4.5 to 20 mM depending on the NaV subtype and assay sensitivity.
# 6) Wash cell plates three times with 100 μL per well of Bath1, leaving 25 μL of residual volume. Then transfer 25 uL per well from Compound Plates to Cell Plates. Incubate for 20-35 minutes at room temp/ambient condition
# 7) Read Plate on E-VIPR. Use the current-controlled amplifier to deliver stimulation wave pulses for typically 9 seconds and a scan rate of 400 Hz. A pre-stimulus recording is performed for 0.5 seconds to obtain the un-stimulated intensities baseline. The stimulatory waveform is applied for 9 seconds followed by 0.5 seconds of post-stimulation recording to examine the relaxation to the resting state. The stimulatory waveform of the electrical stimulation is specific for each cell type and can vary the magnitude, duration and frequency of the applied current to provide an optimal assay signal.
# Data are analyzed and reported as normalized ratios of background-subtracted emission intensities measured in the 460 nm and 580 nm channels. Background intensities are then subtracted from each assay channel. Background intensities are obtained by measuring the emission intensities during the same time periods from identically treated assay wells in which there are no cells. The response as a function of time is then reported as the ratios obtained using the following formula: […]
# The data is further reduced by calculating the initial (Ri) and final (Rf) ratios. These are the average ratio values during part or all of the pre-stimulation period, and during sample points during the stimulation period. The response to the stimulus R=Rf/Ri is then calculated and reported as a function of time.
# Control responses are obtained by performing assays in the presence of a compound with the desired properties (positive control), such as tetracaine, and in the absence of pharmacological agents (negative control). Responses to the negative (N) and positive (P) controls are calculated as above. The compound antagonist activity A is defined as: […]
# [1] = active against one or more sodium channels, assay and NaV subtype not specified for Table 3, read-out: IC50 Binned Activity Data
# Sequence of human NaV subtype, like NaV 1.7 (Q15858 whole entry): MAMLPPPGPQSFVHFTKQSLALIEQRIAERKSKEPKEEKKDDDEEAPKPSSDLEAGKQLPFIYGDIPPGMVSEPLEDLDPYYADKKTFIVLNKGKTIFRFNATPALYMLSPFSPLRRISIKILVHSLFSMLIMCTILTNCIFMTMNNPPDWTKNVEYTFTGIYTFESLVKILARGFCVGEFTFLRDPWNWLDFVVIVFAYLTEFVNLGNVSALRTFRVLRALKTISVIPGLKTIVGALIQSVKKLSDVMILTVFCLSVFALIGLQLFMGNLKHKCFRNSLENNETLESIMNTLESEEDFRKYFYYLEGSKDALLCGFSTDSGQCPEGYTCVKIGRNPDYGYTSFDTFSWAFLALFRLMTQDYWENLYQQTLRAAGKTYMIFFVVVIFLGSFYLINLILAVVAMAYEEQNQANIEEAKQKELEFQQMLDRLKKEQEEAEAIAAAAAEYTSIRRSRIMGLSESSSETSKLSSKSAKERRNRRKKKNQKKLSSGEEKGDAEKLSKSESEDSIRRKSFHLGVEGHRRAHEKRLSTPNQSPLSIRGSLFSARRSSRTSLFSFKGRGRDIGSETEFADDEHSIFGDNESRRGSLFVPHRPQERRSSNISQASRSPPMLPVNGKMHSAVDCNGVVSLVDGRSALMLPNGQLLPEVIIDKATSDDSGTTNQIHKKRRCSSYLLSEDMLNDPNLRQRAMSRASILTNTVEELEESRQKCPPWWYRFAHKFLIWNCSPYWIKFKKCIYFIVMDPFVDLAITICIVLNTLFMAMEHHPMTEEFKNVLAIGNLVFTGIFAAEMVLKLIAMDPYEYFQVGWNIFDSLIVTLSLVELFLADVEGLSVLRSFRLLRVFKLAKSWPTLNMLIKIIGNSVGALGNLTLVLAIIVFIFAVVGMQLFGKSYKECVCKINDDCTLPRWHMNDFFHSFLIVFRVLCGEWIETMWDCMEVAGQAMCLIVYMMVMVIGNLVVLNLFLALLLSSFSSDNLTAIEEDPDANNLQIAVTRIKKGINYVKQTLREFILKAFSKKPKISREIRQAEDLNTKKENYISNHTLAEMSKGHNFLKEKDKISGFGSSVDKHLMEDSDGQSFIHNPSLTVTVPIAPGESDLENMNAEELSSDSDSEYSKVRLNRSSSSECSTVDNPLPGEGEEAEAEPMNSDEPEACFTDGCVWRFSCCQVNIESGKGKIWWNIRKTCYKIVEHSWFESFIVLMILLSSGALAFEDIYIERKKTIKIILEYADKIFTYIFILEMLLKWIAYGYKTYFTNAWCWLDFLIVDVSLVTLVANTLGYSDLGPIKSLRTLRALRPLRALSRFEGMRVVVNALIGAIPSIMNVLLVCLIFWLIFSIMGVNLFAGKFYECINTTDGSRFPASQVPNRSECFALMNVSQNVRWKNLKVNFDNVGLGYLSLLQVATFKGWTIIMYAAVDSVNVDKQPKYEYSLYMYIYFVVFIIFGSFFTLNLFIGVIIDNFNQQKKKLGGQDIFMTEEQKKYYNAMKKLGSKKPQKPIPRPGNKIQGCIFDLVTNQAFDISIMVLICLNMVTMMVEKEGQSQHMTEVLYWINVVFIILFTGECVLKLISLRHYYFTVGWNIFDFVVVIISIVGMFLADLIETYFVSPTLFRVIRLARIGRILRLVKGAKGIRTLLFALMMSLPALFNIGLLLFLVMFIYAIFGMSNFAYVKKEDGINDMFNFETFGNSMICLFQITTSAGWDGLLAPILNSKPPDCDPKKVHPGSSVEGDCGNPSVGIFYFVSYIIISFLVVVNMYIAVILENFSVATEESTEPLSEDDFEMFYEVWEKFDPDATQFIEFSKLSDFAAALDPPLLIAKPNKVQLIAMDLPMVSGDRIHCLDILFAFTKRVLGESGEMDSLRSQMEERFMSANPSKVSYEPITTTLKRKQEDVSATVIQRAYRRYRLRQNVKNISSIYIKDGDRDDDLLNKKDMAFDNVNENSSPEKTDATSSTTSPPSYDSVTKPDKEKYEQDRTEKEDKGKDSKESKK
SMILES,IC50 [1],IC50
Cc1nc(C(=O)N2CCC3(CC2)CN(CC#N)CC(c2ccccc2)O3)ccc1OC(C)C (stereo not drawn) [Compound 212],< 2 µM,–
Cc1cc(C(=O)N2CCC3(CC2)CN(CC(F)(F)F)CC(C(C)(C)O)O3)ccc1OC(C)C (stereo not drawn) [Compound 127],2 to 5 µM,–
COc1cc(C(=O)N2CCC3(CC2)CN(CC(F)(F)F)CC(c2ccccc2)O3)ccc1OC(C)C (stereo not drawn) [Compound 278],< 2 µM,–
Cc1nc(C(=O)N2CCC3(CC2)CN(CC(F)F)CC(c2ccccc2)O3)ccc1C#N (stereo not drawn) [Compound 157],> 5 µM,–
CC(C)(O)Cc1ccc(C(=O)N2CCC3(CC2)CN(CC(F)(F)F)CC(c2ccccc2)O3)cc1F (stereo not drawn) [Compound 39],2 to 5 µM,–
CC(C)Oc1ccc(C(=O)N2CCC3(CC2)CN(CC(F)F)CC(c2ccc(F)cc2)O3)cc1Cl (stereo not drawn) [Compound 156],< 2 µM,–
COc1cc(C(=O)N2CCC3(CC2)CN(CC(F)F)CC(c2ccccc2)O3)ccc1C(C)(C)O (stereo not drawn) [Compound 224],< 2 µM,–
Cc1cc(C2CN(CC(F)(F)F)CC3(CCN(C(=O)c4ccc(OC(C)C)c(C)c4)CC3)O2)n[nH]1 (stereo not drawn) [Compound 26],2 to 5 µM,–
COc1cc(C(=O)N2CCC3(CC2)CN(CC(F)F)C(c2ccccc2)CO3)ccc1OC(C)C (stereo not drawn) [Compound 100],< 2 µM,–
CCC1CN(Cc2ccccc2)CC2(CCN(C(=O)c3ccc(OC(C)C)c(C)c3)CC2)O1 (stereo not drawn) [Compound 142],> 5 µM,–
COc1cc(C(=O)N2CCC3(CC2)CN(CC(F)F)CC(c2cc[nH]n2)O3)ccc1OC(C)C (stereo not drawn) [Compound 210],> 5 µM,–
COCC1CN(Cc2cc(C)on2)CC2(CCN(C(=O)c3ccc(OC(C)C)c(C)c3)CC2)O1 (stereo not drawn) [Compound 132],2 to 5 µM,–
COc1cc(C(=O)N2CCC3(CC2)CN(CC(F)(F)F)CC(c2ccccc2)O3)ccc1OC(C)(C)C (stereo not drawn) [Compound 128],< 2 µM,–
COCC1CN(c2ncccn2)CC2(CCN(C(=O)c3ccccc3OC(F)F)CC2)O1 (stereo not drawn) [Compound 164],> 5 µM,–
COCC1CN(c2ncccn2)CC2(CCN(C(=O)c3ccc(OC(C)C)c(CO)c3)CC2)O1 (stereo not drawn) [Compound 15],> 5 µM,–
COCC1CN(C(C)(C)C)CC2(CCN(C(=O)c3ccc(OC(C)C)c(C)c3)CC2)O1 (stereo not drawn) [Compound 160],2 to 5 µM,–
COCC1CN(C2CCC(C(C)C)CC2)CC2(CCN(C(=O)c3ccc(OC(C)C)c(C)c3)CC2)O1 (stereo not drawn) [Compound 304],< 2 µM,–
CC(C)Oc1ccc(C(=O)N2CCC3(CC2)CN(CC(F)F)CC(c2ccccc2)O3)cc1Cl (stereo not drawn) [Compound 86],< 2 µM,–
CC(C)(O)c1ccc(C(=O)N2CCC3(CC2)CN(CC(F)(F)F)CC(c2ccccc2)O3)cc1F (stereo not drawn) [Compound 257],< 2 µM,–

SMILES,IC50 [1],IC50
COCC1CN(CC2CCCCC2)CC2(CCN(C(=O)c3ccc(OC(C)C)c(C)c3)CC2)O1 (stereo not drawn) [Compound 206],< 2 µM,–
CC(C)Oc1ccc(C(=O)N2CCC3(CC2)CN(CC(F)F)CC(c2ccccc2F)O3)cc1F (stereo not drawn) [Compound 45],< 2 µM,–
CC(C)(O)c1ccc(C(=O)N2CCC3(CC2)CN(CC(F)(F)F)CC(c2ccccc2)O3)cc1 (stereo not drawn) [Compound 105],< 2 µM,–
CCS(=O)(=O)c1ccc(C(=O)N2CCC3(CC2)CN(CC(F)(F)F)CC(c2ccccc2)O3)cc1C (stereo not drawn) [Compound 62],< 2 µM,–
COCC1CN(CC2CCC2)CC2(CCN(C(=O)c3ccc(OC(C)C)c(C)c3)CC2)O1 (stereo not drawn) [Compound 47],< 2 µM,–
COCC1CN(C2CCC(F)(F)CC2)CC2(CCN(C(=O)c3ccc(OC(C)C)c(C)c3)CC2)O1 (stereo not drawn) [Compound 220],< 2 µM,–
COc1cc(C(=O)N2CCC3(CC2)CN(CC(F)(F)F)CC(c2ccccc2)O3)cc(F)c1OC(C)C (stereo not drawn) [Compound 234],< 2 µM,–
COCC1CN(CC2CCOCC2)CC2(CCN(C(=O)c3ccc(OC(C)C)c(C)c3)CC2)O1 (stereo not drawn) [Compound 134],> 5 µM,–
COCC1CN(CC#N)CC2(CCN(C(=O)c3ccc(OC(C)C)c(C)c3)CC2)O1 (stereo not drawn) [Compound 23],> 5 µM,–
CCC1CN(c2ncccn2)CC2(CCN(C(=O)c3ccc(S(=O)(=O)C(C)C)c(C)c3)CC2)O1 (stereo not drawn) [Compound 238],2 to 5 µM,–
COCC1CN(Cc2ccccn2)CC2(CCN(C(=O)c3ccc(OC(C)C)c(C)c3)CC2)O1 (stereo not drawn) [Compound 14],> 5 µM,–
CCN1CC(c2ccccc2)OC2(CCN(C(=O)c3ccc(S(=O)(=O)NC4CC4)cc3)CC2)C1 (stereo not drawn) [Compound 167],> 5 µM,–
COCC1CN(c2cccc(C(F)(F)F)c2)CC2(CCN(C(=O)c3ccc(OC(C)C)c(C)c3)CC2)O1 (stereo not drawn) [Compound 258],< 2 µM,–
Cc1cccc(C2CN(CC(F)F)CC3(CCN(C(=O)c4ccc(C(C)(C)O)c(F)c4)CC3)O2)n1 (stereo not drawn) [Compound 80],> 5 µM,–
Cc1cc(C(=O)N2CCC3(CC2)CN(CC(F)(F)F)CC(c2cc[nH]n2)O3)ccc1OC(C)C (stereo not drawn) [Compound 211],–,< 2 µM
Cc1cc(C(=O)N2CCC3(CC2)CN(c2ncccn2)CC(CO)O3)ccc1OC(C)C (stereo not drawn) [Compound 92],> 5 µM,–
Cc1cc(C(=O)N2CCC3(CC2)CN(CC(F)(F)F)CC(c2ccccc2)O3)ccc1N1CCOCC1 (stereo not drawn) [Compound 78],< 2 µM,–
COCC1CN(c2ccc(C(F)(F)F)cc2)CC2(CCN(C(=O)c3ccc(OC(C)C)c(C)c3)CC2)O1 (stereo not drawn) [Compound 124],< 2 µM,–
CCCCN1CC(COC)OC2(CCN(C(=O)c3ccc(OC(C)C)c(C)c3)CC2)C1 (stereo not drawn) [Compound 101],< 2 µM,–

SMILES,IC50 [1],IC50
Cc1cc(C(=O)N2CCC3(CC2)CN(c2ncccn2)C(C)(C)CO3)ccc1OC(C)C [Compound 51],> 5 µM,–
Cc1cc(C(=O)N2CCC3(CC2)CN(CC(F)(F)F)[C@H](C)[C@@H](c2ccccc2)O3)ccc1OC(C)C [Compound 123],2 to 5 µM,–
COCC1CN(C2CCSCC2)CC2(CCN(C(=O)c3ccc(OC(C)C)c(C)c3)CC2)O1 (stereo not drawn) [Compound 131],< 2 µM,–
COCC1CN(c2ncccn2)CC2(CCN(C(=O)c3ccc(S(=O)(=O)C4CC4)cc3)CC2)O1 (stereo not drawn) [Compound 208],> 5 µM,–
CCOCC1CN(c2ncccn2)CC2(CCN(C(=O)c3ccc(OC(C)C)c(C)c3)CC2)O1 (stereo not drawn) [Compound 235],< 2 µM,–
COC(=O)C(C)(C)c1ccc(C(=O)N2CCC3(CC2)CN(CC(F)(F)F)CC(c2ccccc2)O3)cc1OC (stereo not drawn) [Compound 292],2 to 5 µM,–
COCC1CN(c2cccc(OC)c2)CC2(CCN(C(=O)c3ccc(OC(C)C)c(C)c3)CC2)O1 (stereo not drawn) [Compound 74],< 2 µM,–
COCC1CN(c2ccccc2)CC2(CCN(C(=O)c3ccc(OC(C)C)c(C)c3)CC2)O1 (stereo not drawn) [Compound 286],< 2 µM,–
COCC1CN(c2ncccn2)CC2(CCN(C(=O)c3ccc(OC(C)C)c(C#N)c3)CC2)O1 (stereo not drawn) [Compound 303],< 2 µM,–
CC#CCN1CC(CC)OC2(CCN(C(=O)c3ccc(OC(C)C)c(C#N)c3)CC2)C1 (stereo not drawn) [Compound 231],> 5 µM,–
CC#CCN1CC(CC)OC2(CCN(C(=O)c3ccc(C(C)(C)C)c(OC)c3)CC2)C1 (stereo not drawn) [Compound 129],< 2 µM,–
CC#CCN1CC(CC)OC2(CCN(C(=O)c3ccc(OC(C)C)c(C)c3)CC2)C1 (stereo not drawn) [Compound 248],< 2 µM,–
CCOc1cc(C(=O)N2CCC3(CC2)CN(CC)CC(c2ccccc2)O3)ccc1CO (stereo not drawn) [Compound 203],2 to 5 µM,–
Cc1cc(C(=O)N2CCC3(CC2)CN(CCO)CC(c2ccccc2)O3)ccc1OC(C)C (stereo not drawn) [Compound 25],2 to 5 µM,–
Cc1cc(C(=O)N2CCC3(CC2)CN(c2ncccn2)CC(COC(C)C)O3)ccc1OC(C)C (stereo not drawn) [Compound 114],< 2 µM,–
COCC1CN(c2ncccn2)CC2(CCN(C(=O)c3ccc(C4(O)CCCC4)cc3)CC2)O1 (stereo not drawn) [Compound 300],< 2 µM,–
COCC1CN(C2CCC(C)CC2)CC2(CCN(C(=O)c3ccc(OC(C)C)c(C)c3)CC2)O1 (stereo not drawn) [Compound 5],< 2 µM,–
CC#CCN1CC(CC)OC2(CCN(C(=O)c3ccc(OCCC)c(C)c3)CC2)C1 (stereo not drawn) [Compound 217],< 2 µM,–
CCN1CC(c2ncc(C)s2)OC2(CCN(C(=O)c3ccc(OC(C)C)c(C)c3)CC2)C1 (stereo not drawn) [Compound 250],< 2 µM,–

# From patent US9181273B2, “Morpholine-spirocyclic piperidine amides as modulators of ion channels” (Vertex Pharmaceuticals Incorporated, priority 2011, dated 2015)
